The values below come from paper PMC10534891, “Evaluation of 4-Aminoquinoline Hydrazone Analogues as Potential Leads for Drug-Resistant Malaria” (Molecules, 2023).

The subject of data set [1] is P. falciparum K1 strain. The settings on record: read-out: IC50 (published data); published value for comparison; cited from earlier work.
Data set [2] relates to P. falciparum K1 strain. Kind of data set: P. falciparum K1 asexual growth inhibition, 48 h, SYBR Green-based plate reader assay. It is filed as cell-based, Plasmodium falciparum. The following applies: Plasmodium falciparum, read-out: Plasmodium IC50 ± SE. As to the method:
Sixteen 4-amino-6-methoxy-quinoline hydrazone compounds (see Figure S1, Supplementary Materials for full structures), with methyl and phenyl substituents at the 2-position (R = Me, Ph) and various substituents at R’ (Table 1), were tested for their antimalarial activities. A 1% parasitised culture at the trophozoite stage was treated with the compounds for 48 h at concentrations of 0.003050–200 µM (four-fold serial dilution) against the P. falciparum K1 strain, and the growth was measured using the SYBR Green-based plate reader assay.
(§1) In total, 1% of infected RBCs at the ring or trophozoites stage was exposed to nine dilutions (four-fold serial dilution) of compounds from 50 mM stock solutions in DMSO. A total of 100 µL of culture volume was added in 96-well plates with 100 µL drug dilutions. Plates were either incubated for 48 h or 72 h at 37 °C, 5% CO2, 5% O2 in N2. Following the incubation, 150 µL of the medium was carefully removed and 150 µL of the 5× SYBR Green solution (prepared by adding 2 µL of 10,000× SYBR Green in 4 mL of PBS) was added to each well. Plates were kept in the dark for 45 min. Fluorescence intensity was measured using a microplate reader (Genius Tecan) with an excitation of 485 nm and an emission of 535 nm.
(§2) IC50 values were determined using Graph Pad Prism 5.0. Values were calculated using non-linear regression by using log-transformed drug concentration plotted against dose–response. Parasitaemia was calculated and normalised relative to the response on the controls (cultures without drug).

Data set [3] relates to P. falciparum K1 strain. Kind of data set: P. falciparum K1 dose-response, 72 h, SYBR Green-based plate reader assay. It is filed as cell-based. The settings on record: Plasmodium falciparum, ring stage, 72 h incubation, read-out: Plasmodium IC50 ± SE. As to the method:
We set up drug efficacy assays for the eight lead compounds 1–5, 12–14 (selected based on the best antimalarial activities) (Table 1), with 72 h incubation on parasitised culture. A dose–response experiment was initiated on 1% synchronous culture at the ring stages of the P. falciparum K1 strain. The selected compounds were tested at three-fold serial dilutions from 6.86 to 5000 nM. […] The selectivity indices (IC50 human cells/IC50 parasites) were calculated based on the 72 h exposure studies and are presented in Table 2.
as §1, §2

Data set [4] can be described thus: MTT cytotoxicity assay, HepG2. It is filed as cell-based, Human. The following applies: human, HepG2 cells; MTT, 5 days; read-out: Cell Toxicity IC50 ± SE HepG2. The method, then:
(§3) An MTT (3-(4,5-dimethylthiazol-2-yl)-2,5-diphenyl tetrazolium bromide) assay was performed to investigate the toxicity of the 4-aminoquinoline hydrazone compounds. HepG2 and MDBK cells were incubated with a two-fold serial dilution at dose ranges from 0.39 to 25 µM for 5 days.
(§4) Human hepatoma (HepG2) and the Madin–Darby bovine kidney (MDBK) cell lines were purchased from American Type Culture Collection (ATCC), USA. The MDBK cell line was cultured with Dulbecco’s Modified Eagle’s Medium (DMEM) containing 4.5 g/L (+)-D-glucose and L-glutamine, while the HepG2 cell line was cultured with RPMI 1640 containing 2 mM L-glutamine and HEPES. The culture medium was supplemented with 10% Fetal Bovine Serum (FBS) and 1% penicillin. Cells were maintained in the presence of 5% CO2 atmosphere at 37 °C. The assay was carried out on a 96-well plate, with each well containing 4 × 10^3 cells. Plates were firstly incubated for 24 h at 37 °C to ensure cell adherence. The cells were then treated with 100 µL of the drug solution prepared at various concentrations and further incubated for 5 days. After the incubation period, 50 µL of the MTT (3-(4,5-dimethylthiazol-2-yl)-2,5-diphenyltetrazolium bromide, Sigma, UK) solution was added to each well and incubated for a further 3 h. The MTT solution and medium were aspirated, 150 µL of DMSO was added to each well, and the results were read on the Ascent plate reader.

The test system of a further data set is HepG2 cells. Kind of data set: MTT cytotoxicity assay, HepG2. Type of data set: cell-based, Human. The following applies: HepG2 IC50 (5 days) / K1 72 h IC50; IC50 = 25 μM assumed for compound 13. As to the method: as §3, §4
Background: Tetrazolium dyes change colour on reduction, which living cells bring about.

The subject of another data set is MDBK cells. Kind of data set: MTT cytotoxicity assay, MDBK. Type of data set: cell-based, bovine. The settings on record: MDBK IC50 (5 days) / K1 72 h IC50; IC50 = 25 μM assumed for compounds 5 and 13. The method, then:
as §3, §4

Data set [5] in a line: MTT cytotoxicity assay, MDBK. It is filed as cell-based, bovine. The following applies: bovine, MDBK cells; MTT, 5 days; read-out: Cell Toxicity IC50 ± SE MDBK. The method, then:
as §3, §4

Data set [6] has as its system P. falciparum K1 cultures. Kind of data set: Time-course assay, SYBR Green flow cytometer method. The settings on record: IC50 doses, 24, 48, 72 h. Type of data set: cell-based, Plasmodium falciparum. As to the method: A panel of compounds were selected based on activity and progressed in the time-course assay to define the activity timelines of the compounds. The assay was performed on 1% unsynchronised P. falciparum K1 cultures treated with previously determined IC50 (Table 1) doses of the lead compounds for 24, 48, and 72 h. […] It was also observed that the activity of the compounds became more pronounced as the time progressed up until 72 h of exposure.
The time-course assay was used to define the activity timelines of the 4-aminoquinoline hydrazone compounds. Parasite growth of K1 strain P. falciparum in the presence of 4-aminoquinoline hydrazone compounds was assessed on asynchronous culture. The growth impairment of K1 culture was initiated at 1% parasitaemia for 24, 48, and 72 h. The assay was analysed by flow cytometry as described below.
Following drug efficacy experiments, 100 µL from the control and drug-treated samples on a 96-well plate were transferred to a micro-centrifuge tube containing 1 mL of PBS. The samples were centrifuged at 1200 rpm for 2 min. […] The pellet was re-suspended in PBS (1 mL) and parasitaemia was determined by SYBR Green fluorescence using the FITC channel of the BD FACs Verse flow cytometer system (Blue laser, excitation laser line 488 nM Exmax 494/EMmax 520 nM) and cell size (forward scatter, FSC-A). […]
(In general: Flow cytometry measures light scatter and fluorescence of single cells or particles in a stream.)

Like-named read-outs stand apart in the source and are kept apart here.

As for `CCN(CC)CCCC(C)Nc1ccnc2cc(Cl)ccc12` (stereo not drawn) [Chloroquine, reference compound], the half-maximal inhibitory concentration (IC50) in the data set with P. falciparum K1 strain [1] is 0.255 ± 0.049 µM; in the data set with P. falciparum K1 strain [2] (K1, 48 h), 0.199 ± 0.04 µM.
`COc1ccc2nc(C)cc(N/N=C/c3cccnc3)c2c1` [Compound 3]: the 50% inhibitory concentration (IC50) came to 0.175 ± 0.04 µM with P. falciparum K1 strain [3] and 3.29 ± 1.6 µM in the data set with P. falciparum K1 strain [2] (K1 strain, trophozoite stage, 48 h incubation). The 50% inhibitory concentration (IC50) at 5 days turned out to be 3 ± 0.27 µM in data set [4] and 7.34 ± 7.6 µM in data set [5]. Besides, in the data set with HepG2 cells, the “Selectivity Indices (HepG2)” value is given as 17. Also, the “Selectivity Indices (MDBK)” value in the data set on MDBK cells is recorded as 42. Further, the “Onset of activity in time-course” value in data set [6] was “delayed activity”.

One may read the IC50 as the concentration that gives 50% inhibition.
